Test results as given in ChEMBL document CHEMBL4364276, “Discovery of 4-phenyl-2H-benzo[b][1,4]oxazin-3(4H)-one derivatives as potent and orally active PI3K/mTOR dual inhibitors” (Eur J Med Chem, 2019).

How the values were obtained:
[1] = molecular target: PI3-kinase p110-delta/p85-alpha (Homo sapiens, UniProt O00329); assay: Inhibition of recombinant human full length N-terminal GST-tagged PI3Kdelta (1 to 1044 residues)/PIK3R1 (1 to 724 residues) expressed in baculovirus expression system using PIP2 as substrate incubated for 2 hrs by ADP-Glo assay
[2] = molecular target: Phosphatidylinositol 4,5-bisphosphate 3-kinase catalytic subunit alpha isoform (Homo sapiens, UniProt P42336); assay: Inhibition of recombinant human full length N-terminal GST-tagged PI3Kalpha (1 to 1068 residues)/PIK3R1 (1 to 724 residues) expressed in baculovirus expression system using PIP2 as substrate incubated for 1 hr by ADP-Glo assay
HCT-116 = assay: Antiproliferative activity against human HCT116 cells assessed as reduction in cell viability incubated for 72 hrs by MTT assay; assay type: functional, cell-based; conditions: HCT-116, 72 h
MCF7 = assay: cells; conditions: Homo sapiens, MCF7, 72 h
HeLa [3] = assay: Antiproliferative activity against human HeLa cells assessed as reduction in cell viability incubated for 72 hrs by MTT assay; assay type: functional, cell-based
[4] = molecular target: Serine/threonine-protein kinase mTOR (Homo sapiens, UniProt P42345); assay: Inhibition of recombinant human N-terminal FLAG-tagged mTOR (1362 to end residues) using Ulight-4E-BP1 as substrate incubated for 30 mins by fluorescence assay
A549 [5] = assay: cells; conditions: Homo sapiens, A549, 72 h
A-375 = assay: Antiproliferative activity against human A375 cells assessed as reduction in cell viability incubated for 72 hrs by MTT assay; assay type: functional, cell-based; conditions: A-375, 72 h
HepG2 = assay: cells; conditions: Homo sapiens, HepG2, 72 h
A549 [6] = assay: Antitumor activity against human A549 cells xenografted in BALB/c nude mouse assessed as tumor growth inhibition at 20 mg/kg, ig administered for 30 days measured every 3 days during compound dosing relative to control; assay type: functional; conditions: A549, po, read-out: TGI
[7] = Toxicity in BALB/c mouse xenografted with human HeLa cells assessed as reduction in body weight at 20 mg/kg, ig administered for 30 days; assay type: organism-based; conditions: in vivo, po, 720 h
HeLa [8] = assay: Antitumor activity against human HeLa cells xenografted in BALB/c nude mouse assessed as tumor growth inhibition at 20 mg/kg, ig administered for 30 days measured every 3 days during compound dosing relative to control; assay type: functional; conditions: po, read-out: TGI
[9] = Toxicity in BALB/c mouse xenografted with human A549 cells assessed as reduction in body weight at 20 mg/kg, ig administered for 30 days; assay type: organism-based; conditions: in vivo, po, 720 h

Phosphatidylinositol 4,5-bisphosphate 3-kinase catalytic subunit alpha isoform, sequence (P42336 whole entry, looked up, the tested form may be a part, canonical isoform): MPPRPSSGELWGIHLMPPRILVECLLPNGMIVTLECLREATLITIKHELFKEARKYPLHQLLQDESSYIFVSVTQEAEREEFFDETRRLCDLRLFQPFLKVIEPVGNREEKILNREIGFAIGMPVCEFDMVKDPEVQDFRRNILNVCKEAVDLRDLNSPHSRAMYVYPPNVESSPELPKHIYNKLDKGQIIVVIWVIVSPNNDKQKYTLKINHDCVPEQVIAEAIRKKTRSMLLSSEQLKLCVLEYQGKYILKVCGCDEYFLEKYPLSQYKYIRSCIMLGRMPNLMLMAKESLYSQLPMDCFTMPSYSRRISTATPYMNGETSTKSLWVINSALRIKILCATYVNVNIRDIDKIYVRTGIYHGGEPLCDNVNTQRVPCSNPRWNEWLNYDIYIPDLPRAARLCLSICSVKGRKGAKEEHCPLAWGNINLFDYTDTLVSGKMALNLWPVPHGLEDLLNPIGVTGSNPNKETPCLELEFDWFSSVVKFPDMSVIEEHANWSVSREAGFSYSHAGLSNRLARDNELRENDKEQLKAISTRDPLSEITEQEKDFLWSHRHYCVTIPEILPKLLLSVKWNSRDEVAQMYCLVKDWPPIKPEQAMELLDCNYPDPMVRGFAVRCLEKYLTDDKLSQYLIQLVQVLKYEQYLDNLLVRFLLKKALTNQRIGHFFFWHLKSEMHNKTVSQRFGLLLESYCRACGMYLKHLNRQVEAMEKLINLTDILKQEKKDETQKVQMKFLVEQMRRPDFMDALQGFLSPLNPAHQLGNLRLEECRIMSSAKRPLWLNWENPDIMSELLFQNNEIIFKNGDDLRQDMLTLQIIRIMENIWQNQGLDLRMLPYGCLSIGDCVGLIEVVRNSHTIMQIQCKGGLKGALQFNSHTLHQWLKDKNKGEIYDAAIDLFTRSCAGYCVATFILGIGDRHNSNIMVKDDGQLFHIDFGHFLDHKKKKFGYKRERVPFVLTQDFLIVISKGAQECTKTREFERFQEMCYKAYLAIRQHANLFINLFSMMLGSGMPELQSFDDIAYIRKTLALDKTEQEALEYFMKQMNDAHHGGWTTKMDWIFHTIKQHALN
PI3-kinase p110-delta/p85-alpha, sequence (P27986 whole entry, the tested form may be a part, canonical isoform): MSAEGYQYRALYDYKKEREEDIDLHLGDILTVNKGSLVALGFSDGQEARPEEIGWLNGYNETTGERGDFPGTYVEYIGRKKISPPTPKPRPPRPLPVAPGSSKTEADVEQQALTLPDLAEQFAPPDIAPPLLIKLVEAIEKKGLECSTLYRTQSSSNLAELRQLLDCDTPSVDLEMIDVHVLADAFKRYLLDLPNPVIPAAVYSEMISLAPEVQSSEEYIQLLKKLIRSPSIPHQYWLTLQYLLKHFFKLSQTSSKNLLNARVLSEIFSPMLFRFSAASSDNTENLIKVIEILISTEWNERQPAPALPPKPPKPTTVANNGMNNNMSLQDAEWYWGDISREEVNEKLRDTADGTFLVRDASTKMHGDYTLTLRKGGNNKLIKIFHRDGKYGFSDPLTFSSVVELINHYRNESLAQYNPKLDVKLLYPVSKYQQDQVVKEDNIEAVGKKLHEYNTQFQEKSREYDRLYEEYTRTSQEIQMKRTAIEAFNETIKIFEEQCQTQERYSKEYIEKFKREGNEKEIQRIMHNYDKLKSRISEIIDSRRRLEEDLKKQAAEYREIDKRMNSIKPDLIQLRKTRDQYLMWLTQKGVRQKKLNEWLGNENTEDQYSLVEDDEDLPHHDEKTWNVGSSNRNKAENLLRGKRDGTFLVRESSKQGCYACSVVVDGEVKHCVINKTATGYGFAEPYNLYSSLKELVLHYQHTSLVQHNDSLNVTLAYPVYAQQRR
PI3-kinase p110-delta/p85-alpha, sequence (O00329 whole entry, the tested form may be a part, canonical isoform): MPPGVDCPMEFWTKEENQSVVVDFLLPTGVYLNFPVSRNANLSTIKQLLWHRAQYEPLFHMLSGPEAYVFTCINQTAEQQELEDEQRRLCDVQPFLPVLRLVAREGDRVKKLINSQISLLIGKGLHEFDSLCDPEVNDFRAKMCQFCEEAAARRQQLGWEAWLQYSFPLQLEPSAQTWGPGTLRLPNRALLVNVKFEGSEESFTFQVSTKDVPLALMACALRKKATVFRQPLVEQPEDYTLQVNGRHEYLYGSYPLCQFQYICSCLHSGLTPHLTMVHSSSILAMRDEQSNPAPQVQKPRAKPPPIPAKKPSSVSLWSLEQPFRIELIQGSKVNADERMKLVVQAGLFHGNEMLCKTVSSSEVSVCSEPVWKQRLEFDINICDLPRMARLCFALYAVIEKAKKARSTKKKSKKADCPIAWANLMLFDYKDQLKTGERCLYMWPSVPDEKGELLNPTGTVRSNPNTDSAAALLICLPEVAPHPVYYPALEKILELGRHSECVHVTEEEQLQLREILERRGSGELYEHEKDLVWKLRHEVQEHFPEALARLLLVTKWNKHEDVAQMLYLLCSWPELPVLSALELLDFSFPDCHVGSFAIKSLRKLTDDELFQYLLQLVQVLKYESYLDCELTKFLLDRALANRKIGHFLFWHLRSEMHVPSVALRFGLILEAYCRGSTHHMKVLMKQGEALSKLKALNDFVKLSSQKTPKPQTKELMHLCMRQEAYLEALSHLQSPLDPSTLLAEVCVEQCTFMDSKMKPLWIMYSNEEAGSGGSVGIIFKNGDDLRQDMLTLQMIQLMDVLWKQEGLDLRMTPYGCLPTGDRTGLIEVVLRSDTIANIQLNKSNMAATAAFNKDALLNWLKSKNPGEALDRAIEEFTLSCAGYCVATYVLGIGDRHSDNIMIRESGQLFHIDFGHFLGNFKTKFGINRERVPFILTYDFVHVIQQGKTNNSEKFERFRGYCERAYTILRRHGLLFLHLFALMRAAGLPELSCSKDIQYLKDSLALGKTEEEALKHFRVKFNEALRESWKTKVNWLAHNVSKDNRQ

SMILES	IC50 [1] [µM]	IC50 [2] [µM]	IC50 (HCT-116) [µM]	IC50 (MCF7) [µM]	IC50 (HeLa [3]) [µM]	IC50 [4] [µM]	IC50 (A549 [5]) [µM]	IC50 (A-375) [µM]	IC50 (HepG2) [µM]	inhibition in vivo at 20 mg/kg (A549 [6]) [%]	Activity [7]	inhibition in vivo at 20 mg/kg (HeLa [8]) [%]	Activity [9]
Cc1ccc(N2C(=O)COc3ccc(-c4ccc(O)cc4)cc32)cc1	> 1	> 1	> 40	26.2	> 40	> 1	> 40	> 40	> 40	–	–	–	–
O=C1COc2ccc(-c3ccc(O)cc3)cc2N1C1CCCCC1	> 1	> 10	> 40	> 40	> 40	> 1	> 40	> 40	> 40	–	–	–	–
O=C1COc2ccc(-c3cccc(NS(=O)(=O)c4ccc(F)cc4)c3)cc2N1C1CCCCC1	> 1	> 1	18.3	21.4	10.8	> 1	14.5	23.8	35.9	–	–	–	–
O=C1COc2ccc(-c3cccc(NS(=O)(=O)c4ccc(F)cc4)c3)cc2N1C1CC1	> 1	> 1	> 40	> 40	> 40	> 1	> 40	> 40	> 40	–	–	–	–
Cc1ccc(N2C(=O)COc3ccc(-c4cnc(Cl)c(NS(=O)(=O)c5ccc(F)cc5)c4)cc32)cc1	0.0037	0.0041	34.3	32.6	32.3	0.0194	30.9	38.9	39.6	–	–	–	–
O=C1COc2ccc(-c3cccc(NS(=O)(=O)c4ccc(F)cc4)c3)cc2N1c1ccc(Cl)cc1	> 1	> 1	23.9	39.8	35	> 1	31.6	32.5	27.8	–	–	–	–
O=C1COc2ccc(-c3cnc4ccccc4c3)cc2N1c1ccccc1	> 1	> 1	> 40	> 40	> 40	> 1	> 40	> 40	> 40	–	–	–	–
O=C1COc2ccc(-c3cnc(Cl)c(NS(=O)(=O)c4ccc(F)cc4)c3)cc2N1c1ccccc1	0.015	0.019	39.8	> 40	10.3	0.0153	14.7	36.9	35.7	–	–	–	–
COc1cccc(N2C(=O)COc3ccc(-c4cnc5ccccc5c4)cc32)c1	> 1	> 1	8.24	> 40	11.3	> 1	> 40	23.6	2.08	–	–	–	–
O=C1COc2ccc(-c3cccc(NS(=O)(=O)c4ccc(F)cc4)c3)cc2N1c1ccccc1	> 1	> 1	> 40	> 40	17.7	> 1	> 40	> 40	30.3	–	–	–	–
COc1ncc(-c2ccc3c(c2)N(C(C)C)C(=O)CO3)cc1NS(=O)(=O)c1ccc(F)cc1	0.018	0.0453	19.2	16.9	2.79	0.0036	4.92	9.95	37.2	–	–	–	–
O=C1COc2ccc(-c3cnc4ccccc4c3)cc2N1c1ccc(F)cc1	> 1	> 1	> 40	> 40	38.8	> 1	> 40	> 40	37.2	–	–	–	–
O=C1COc2ccc(-c3ccc(O)cc3)cc2N1C1CC1	> 1	> 1	> 40	33	> 40	> 1	> 40	> 40	32.7	–	–	–	–
COc1ncc(-c2ccc3c(c2)N(c2ccc(Cl)cc2)C(=O)CO3)cc1NS(=O)(=O)c1ccc(F)cc1	0.018	0.022	19.2	27.6	4.83	0.0126	8.35	24.1	17.9	–	–	–	–
O=C1COc2ccc(-c3cccc(NS(=O)(=O)c4ccc(F)cc4)c3)cc2N1	> 1	> 1	> 40	18.3	> 40	> 1	32.1	20.1	> 40	–	–	–	–
O=C1COc2ccc(-c3cnc(Cl)c(NS(=O)(=O)c4ccc(F)cc4)c3)cc2N1C1CC1	0.062	0.086	12.4	16.7	7.18	0.267	4.33	21.8	8.51	–	–	–	–
COc1cccc(N2C(=O)COc3ccc(-c4cnc(Cl)c(NS(=O)(=O)c5ccc(F)cc5)c4)cc32)c1	> 1	> 1	> 40	> 40	> 40	> 1	32.6	> 40	> 40	–	–	–	–
CC(C)N1C(=O)COc2ccc(-c3cnc4ccccc4c3)cc21	> 1	> 1	23.2	22.9	23.1	> 1	24.6	39	> 40	–	–	–	–
CC(C)N1C(=O)COc2ccc(-c3ccc(O)cc3)cc21	> 1	> 1	> 40	> 40	> 40	> 1	> 40	> 40	> 40	–	–	–	–
O=C1COc2ccc(-c3cnc4ccccc4c3)cc2N1	> 1	> 1	> 40	> 40	> 40	> 1	> 40	> 40	26.3	–	–	–	–
COc1ncc(-c2ccc3c(c2)N(C2CC2)C(=O)CO3)cc1NS(=O)(=O)c1ccc(F)cc1	0.162	0.131	24.3	35.2	6.03	0.253	3.32	23.9	14.4	–	–	–	–
O=C1COc2ccc(-c3cnc(Cl)c(NS(=O)(=O)c4ccc(F)cc4)c3)cc2N1c1ccc(F)cc1	0.005	0.0051	34.2	32.6	> 40	0.0179	22.3	> 40	> 40	–	–	–	–
Cn1c(=O)n(-c2ccc(C(C)(C)C#N)cc2)c2c3cc(-c4cnc5ccccc5c4)ccc3ncc21 [DACTOLISIB]	–	–	1.7	0.45	1.17	–	1.08	0.58	4.04	56.1	Toxic	66.5	Toxic
COc1ccc(N2C(=O)COc3ccc(-c4cnc(Cl)c(NS(=O)(=O)c5ccc(F)cc5)c4)cc32)cc1	0.0038	0.00043	30.1	36	8.32	0.0198	30.4	32.7	> 40	–	–	–	–
Cc1ccc(N2C(=O)COc3ccc(-c4cccc(NS(=O)(=O)c5ccc(F)cc5)c4)cc32)cc1	> 1	> 1	35.6	32.1	> 40	> 1	> 40	36.2	> 40	–	–	–	–
O=C1COc2ccc(-c3cnc4ccccc4c3)cc2N1c1ccc(Cl)cc1	> 1	> 1	36.1	> 40	> 40	> 1	> 40	> 40	32.7	–	–	–	–
